Reference: PMC8146336, “The Mechanisms of Thiosulfate Toxicity against Saccharomyces cerevisiae” (Antioxidants, 2021)

Molecular target: T1, cytochrome c oxidase (Saccharomyces cerevisiae, UniProt P00401+P00410)
T1 construct: gene COX1; native complex IV in whole sulfur-starved yeast cells; not purified; with Cytochrome c oxidase subunit 3; Cytochrome c oxidase subunit 4, mitochondrial; Cytochrome c oxidase subunit 5A, mitochondrial; Cytochrome c oxidase subunit 6, mitochondrial; Cytochrome c oxidase subunit 7, mitochondrial; Cytochrome c oxidase subunit 8, mitochondrial; Cytochrome c oxidase subunit 9, mitochondrial; Cytochrome c oxidase subunit 12, mitochondrial; Cytochrome c oxidase subunit 13, mitochondrial
Experiment: oxygen consumption of whole cells with TMPD/ascorbate as electron donor
Assay type: cell-based
Settings: 10 mM thiosulfate, 12.5 mM ascorbate, 1.4 mM TMPD, PBS, sulfur-starved cells OD600 10; CuB binding only proposed

In the case of `O=S(O)(O)=S` [thiosulfate], the “inhibition at 10 mM” value is reported as “In the assay, thiosulfate inhibited cytochrome c oxidase (Figure 5E)”.
